Laboratory results: PubChem BioAssay AID449735 (Southern Research Specialized Biocontainment Screening …, 2010)
Active and inactive are the calls of the source.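 How the source made its calls: active means drop in polymyxin IC50 at top compound dose in wild type more than twice that in PhoP-lacking strain; inactive means the rest.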

Legend:
[1] = polymyxin IC50 shift, WT versus phoP- Salmonella – S. Typhimurium, WT and phoP- strains, round 3, mechanism study for PhoP regulon inhibitor project, late-stage follow-up (AID 449735); settings: S. Typhimurium WT vs phoP-, polymyxin IC50 shift, OD600, at 150 µM, stronger effect = higher value
[2] = test system: S. Typhimurium WT vs phoP-, polymyxin IC50 shift, OD600; assay: as above
[3] = measured here: WT strain IC50 shift
[4] = measured here: phoP- strain IC50 shift

SMILES | polymyxin IC50 shift difference WT - phoP- [1] | polymyxin IC50 shift [1, 3] | polymyxin IC50 shift [1, 4] | IC50 [2]
O=C(Nc1ccc(I)cc1)N1CCCN(Cc2ccccc2F)C1 | -8.3 (inactive) | 9.92 | 18.2 | –
CCn1cc(C(=O)O)c(=O)c2cc(F)c(N3CCN(C(=S)Nc4ccccc4OC)CC3)cc21 | -0.94 (inactive) | -2.11 | -1.17 | –
S=C(NCCc1ccc(Cl)cc1)Nc1ccncc1 | -0.21 (inactive) | 0.05 | 0.26 | –
O=C(Nc1ccc(Cl)cc1)N1CCCN(Cc2ccccc2Br)C1 | -4.93 (inactive) | -2.84 | 2.09 | –
CCn1cc(C(=O)O)c(=O)c2cc(F)c(N3CCN(C(=S)Nc4ccccc4C)CC3)cc21 | – | 15.9 | 3.07 | 30 µM
O=C(Nc1ccc(Cl)cc1)N1CCCN(Cc2ccc(Br)cc2)C1 | -1.52 (inactive) | 1.77 | 3.29 | –
